In experiment [1] the test system is black bean aphids (Aphis fabae). As to the kind of experiment: Method B: root-systemic test, aqueous solution of the formulated preparation pipetted into the bottle of field bean (Vicia faba) populated with aphids. The note with it: 10 ppm (based on content of active compound), 4 ml solution pipetted into bottle, after 3 and 6 days of storage, read-out: mortality among the aphids, by root-systemic action. Format: in vivo. As for the experimental part:
Germinated field bean seeds (Vicia faba) with seed roots were transferred into brown glass bottles filled with tap water. Four milliliters of an aqueous solution of the formulated preparation to be examined were pipetted into the brown glass bottle.
The field bean was then heavily populated with about 100 black bean aphids (Aphis fabae). Plants and aphids were then stored in a climatized chamber (16 hours of light/day, 25° C., 40-60% relative atmospheric humidity). After 3 and 6 days of storage, the root-systemic effect of the preparation on the aphids was determined.

Experiment [2] has the same test system. As to the kind of experiment: whole plant or invertebrate. Conditions: in Vicia faba, read-out: mortality among the aphids.

Bounds are passed on as bounds.

With `C=CCSC(=NC(=O)c1cnccc1C(F)(F)F)NCc1ccccc1` [Compound A-724, 1-benzyl-S-(2-propenyl)-3-(4-trifluoromethyl-3-pyridylcarbonyl)isothiourea], in experiment [1], the mortality – broadly, the percentage killed – at 10 ppm was not below 80%. The mortality at 100 ppm in experiment [2] is not below 50%.

For the origin of these results see patent publication US7560456B2, “Pesticidal pyridinecarboxamide derivatives” (Merial Limited, priority 2002, dated 2009).
